Data from patent US20260263410A1, “USE OF CALCIUM SENSING RECEPTOR ANTAGONISTS FOR TREATING OCULAR DISORDERS” (THE REGENTS OF THE UNIVERSITY OF CALIFORNIA, priority 2023, published 2026).
Where “and” joins values, the source holds several entries; their conditions need not be identical. Equal entries are not always repeated.

Columns and labels:
[1] = Tear fluid volume by endodontic absorbent paper point tear test (EAPPTT); type: in vivo, BALB/c mice
Procedure: Endodontic absorbent paper point tear tests (EAPPTT) […] PBS with 30 μM NPS-2143 (or 0.2% DMSO control) in both eyes. […] The wetted length was measured using a millimeter-scale ruler viewed under a magnifying glass. All mice were kept at ambient conditions (approximately 50% humidity and 21° C.) and provided unrestricted access to food and water.

[2] = system: CFTR; assay: OSPD, forskolin / CFTRinh-172-induced change (CFTR-mediated Cl− secretion); type: in vivo, mice
Description: Using pharmacological activators and inhibitors, OSPD allows studying activities of various ion channels/transporters in the ocular surface.^12 In these studies, baseline OSPD is established using a high Cl^− solution that mimics the tear fihn. OSPD changes induced by amiloride (ENaC inhibitor) indicates Na^+ transport via ENaC. Similarly, OSPD changes induced by forskolin (cAMP agonist) and CFTRinh-172 (CFTR inhibitor) indicates Cl^− secretion via cAMP-activated Cl^− channels and particularly CFTR. Lastly, OSPD changes induced by Ca^2+ agonist ATP indicates Cl^− secretion mediated by CaCCs.
Sequential perfusion of the ocular surface with solutions containing amiloride (ENaC inhibitor), forskolin (cAMP agonist), CFTRinh-172 (CFTR inhibitor), and ATP (Ca^2+ agonist) thus allows determining activities of ENaC, CFTR, and CaCC ion channels, respectively (FIG. 4A).
Using CaSR antagonist NPS-2143 in the OSPD experiments confirmed the hypothesis. Perfusion of ocular surface with 30 μM NPS-2143 led to large hyperpolarization (−13 mV), which was 70% of subsequently applied maximal forskolin-induced hyperpolarization after which cAMP agonist forskolin had minimal further secretory effect (FIGS. 6A and 6B). […]
Ocular surface potential difference (OSPD) and tear fluid volume measurements were performed in mice with topically applied cinacalcet (CaSR activator) and NPS-2143 (CaSR inhibitor). […] As described previously,^12, 14, 15 open-circuit transepithelial potential differences were measured in response to serial perfusions of different isoosmolar (310 mOsm/kg H2O) solutions over the ocular surface at 5-10 ml/min. […] Each solution was perfused onto the ocular surface using a gravity perfusion system (ALA Scientific: Farmingdale, NY, USA) for 1-3 minutes until a stable OSPD reading was obtained.

Structure (SMILES) | increase in tear fluid volume ([1]; single dose topical 0.001% or 30 μM, for at least eight hours) [%] | increase in tear fluid volume ([1]; topical 0.001% or 30 μM, single 10 μL dose, as early as 15 minutes after treatment) | reversal of effect by CFTR inhibitor CFTRinh-172 ([2]; 10 μM CFTRinh-172 after NPS-2143 and forskolin) | Cl− secretory effect in mouse ocular surface ([2]; applied topically) | inhibition of CFTR activity (lower CFTRinh-172 response) ([2]; 30 μM cinacalcet, 10 μM CFTRinh-172, concentration-dependent)
CC(C)(Cc1ccc2ccccc2c1)NC[C@@H](O)COc1cccc(Cl)c1C#N [NPS-2143, 2-chloro-6-[(2R)-3-([1,1-dimethyl-2-(2-naphthalenyl)ethyl]amino)-2-hydroxypropoxy]benzonitrile] | > 60 | 60% and ~ 60% | partially reversed | large Cl^− secretory current | 
C[C@@H](NCCCc1cccc(C(F)(F)F)c1)c1cccc2ccccc12 [cinacalcet] |  |  |  |  | up to 90%
